# According to US7183255B2, “Method for stabilizing blood pressure in hemodialysis subjects” (Intradialytic Pharmaceuticals, priority 2003, dated 2007):
# Where “and” joins values, the source holds several entries; their conditions need not be identical. Equal values may be shown once.
# Columns and labels:
# Type in all cases: in vivo, human
# [1] = test system: ESRD patients during hemodialysis; experiment: Systolic arterial pressure during hemodialysis with AVP infusion vs vehicle, twelve patients (Example 1); conditions: for systolic arterial pressure: dialysis with AVP infused, M ± SD
# Protocol: (§1) Healthy controls and patients with end-stage renal disease (e.g. defined as creatinine clearance of less than 10 ml/min) were studied. The studies were conducted on regularly scheduled hemodialysis days. The duration of hemodialysis remained the same as that prescribed prior to the study period. AVP or placebo (normal saline) was administered at a constant rate of 0.15, 0.3 or o.6 mU/kg/min through a venous line (controls) or through the venous limb of the dialysis circuit (hemodialysis patients). The patient's hemodialysis prescription remained unchanged except for the administration of AVP or placebo. Intradialytic hypotension was treated in the customary manner with the infusion of isotonic and hypertonic fluids.
# (§2) Serum AVP levels were determined by a radioimmunoassay technique. Blood pressure was measured with a cuff-type sphygmomanometer at 20 minute intervals.
# AVP administration results in a higher intra-dialysis blood pressure. To examine whether vasopressin could help in supporting blood pressure during dialysis, we dialyzed a group of ESRD patients during administration of vehicle or during administration of vasopressin at a dose without pressor effect in normal subjects.
# To determine the blood pressure effect of exogenous AVP during dialysis, two dialysis treatments were administered to twelve patients. In one, only the vehicle used to administer AVP was given while in the other treatment, AVP was infused. As shown, systolic arterial pressure decreased more than 10 mm Hg during the control dialysis while it decreased a maximum of 5 mm Hg during the dialysis in which AVP was infused.
# [2] = test system: ESRD patients during hemodialysis; experiment: Fluids needed to maintain blood pressure and weight lost during hemodialysis with AVP, 5 patients (Example 1, FIG. 6)
# Protocol: as §1
# AVP Administration allows more fluid removal. […] Dialysis during the administration of AVP resulted both in a decreased in the amount of intravenous fluids needed to maintain blood pressure and in a greater decrease in weight.
# The amount of fluids to maintain blood pressure during dialysis and the weight decrease were as given below: […]
# normal subjects = experiment: Systolic arterial pressure during AVP infusion in normal subjects (Example 1); conditions: for systolic arterial blood pressure: normals, n=12, M ± SD
# Protocol: as §1, §2
# We discovered that patients with ERSD are hypersensitive to vasopressin's pressor action.
# The administration of exogenous AVP to patients with ESDR led to the discovery that these patients are hyper-responsive to the vascular effect of this hormone.
# [3] = test system: ESRD patients during hemodialysis; experiment: Similar study of fluid removal by hemodialysis with AVP vs placebo (FIG. 7); conditions: five patients on AVP (FIG. 7)
# Excerpt: FIG. 7 depicts greater fluid removal by hemodialysis with AVP.
# [4] = Plasma AVP (radioimmunoassay) during constant AVP infusion, control vs hemodialysis periods (Example 1); parameters: plasma concentration of AVP at 2 h: unit not given here; conditions: for plasma concentration of AVP at 2 h: ESRD patients, n=4
# Protocol: as §1, §2
# Plasma AVP is not dialyzed. To examine whether administration of exogenous AVP could prevent intradialytic hypotension, it was first determined whether the dialysis procedure removed the hormone from the blood. To determine this, AVP was administered at doses that had no effect in normal subjects and determined the plasma concentrations and pressure responses to AVP infusion in healthy control subjects and hemodialysis patients.
# To rule out the possibility that the lack of a rise in plasma AVP during dialysis was due to the fact that the newly secreted hormone was being dialyzed as was being secreted, we measured plasma AVP during the infusion of exogenous AVP to ERDS patients during control conditions and during hemodialysis.
# [5] = Effect of hemodialysis on plasma vasopressin during constant vasopressin infusion (Example 3, Table 1); conditions: for level at 1 h / level at 2 h / level at 0 h: human, plasma, iv, mean±SE; for level at 1 h: 1 h Dialysis; for level at 2 h: 2 h Dialysis; for level at 0 h: Start Dialysis
# Protocol: All patients were studied at regularly scheduled dialysis sessions. Patients underwent conventional hemodialysis with hollow fiber high flux polysulfone dialyzers on volumetric dialysis machines (Cobe Centrysystem 3, Gambro Renal Care Products, Inc., Lakewood, Colo.). Dialysis times were 3.5–4.5 hours. Blood flow was 300–400 mL/min and dialysate was delivered at 600 mL/min. The dialysis bath contained potassium, 2 mEq/L; calcium, 2.5 mEq/L; magnesium, 0.75 mEq/L; and bicarbonate, 40 mEq/L. In those patients who were prescribed dialysate sodium modeling and/or reduced dialysate temperature (35–37° C.) prior to the study, the parameters of these interventions were held constant throughout the study. Ultrafiltration was performed at a constant rate based on the target weight loss for that dialysis session. Oscillometric blood pressure and heart rate measurements were taken at 15–30 minute intervals.
# Plasma vasopressin concentration. Vasopressin in plasma was determined as previously described (Landry, D. W., H. R. Levin, et al. (1997). Circulation 95(5): 1122–5).
# Administration of vasopressin. In eight normal subjects and eight patients with ESRD off dialysis, 8-arginine vasopressin (vasopressin, American Pharmaceutical Partners, Schaumberg, Ill.) in normal saline was administered through an antecubital intravenous line. In eight patients with ESRD during hemodialysis, vasopressin was infused through the venous (blood return) limb of the dialysis circuit throughout the dialysis session at a rate of 0.15 or 0.3 mU·kg^−1·min^−1.
# Effect of hemodialysis on plasma vasopressin concentration during constant infusion of hormone. To determine whether hemodialysis removes vasopressin from plasma (Shimamoto, K., T. Ando, et al. (1977). J Clin Endocrinol Metab 45(4): 818–20; Rosansky, S. J., R. Rhinehart, et al. (1991). Clin Nephrol 35(4): 158–64), we examined the effect of the procedure on the steady state plasma concentration of hormone during constant infusion. Vasopressin was infused for >1 hour to obtain a stable plasma concentration, at which time hemodialysis was initiated.
# [6] = hemodialysis with AVP, individual patients 1-5
# [7] = 0.15 mU/kg · min^−1, infusion 0.15 mU · kg^−1 · min^−1
# [8] = 0.3 mU/kg · min^−1, infusion 0.3 mU · kg^−1 · min^−1
smiles,measurement,setting,value
"NC(=O)CC[C@@H]1NC(=O)[C@H](Cc2ccccc2)NC(=O)[C@H](Cc2ccc(O)cc2)NC(=O)[C@@H](N)CSSC[C@@H](C(=O)N2CCC[C@H]2C(=O)N[C@@H](CCCN=C(N)N)C(=O)NCC(N)=O)NC(=O)[C@H](CC(N)=O)NC1=O [AVP, 8-arginine vasopressin]",decrease of systolic arterial pressure during dialysis,"[1]; dialysis in which AVP was infused, control dialysis decreased more than 10 mm Hg",≤ 5 mm Hg
same,systolic arterial pressure,[1]; 30 minutes of dialysis,153 ± 25 mm Hg
same,systolic arterial pressure,[1]; 60 minutes of dialysis,155 ± 29 mm Hg
same,systolic arterial pressure,[1]; 90 minutes of dialysis,149 ± 30 mm Hg
same,systolic arterial pressure,[1]; 120 minutes of dialysis,148 ± 30 mm Hg
same,systolic arterial pressure,[1]; 150 minutes of dialysis,149 ± 31 mm Hg
same,systolic arterial pressure,[1]; 180 minutes of dialysis,149 ± 30 mm Hg
same,systolic arterial pressure,"[1]; before dialysis, twelve patients",153 ± 28 mm Hg
same,blood pressure stability and extra fluid removal,[2]; all patients on AVP (FIG. 6),the blood pressure was stable and extra fluid removal was possible
same,Fluids given to maintain blood pressure during dialysis,[2]; [6],0 mL
same,Weight lost,[2]; [6],2.8 Kg and 1.8 Kg and 2.2 Kg (2×) and 3.0 Kg
same,pressor action of AVP,"normal subjects; normal subjects, same dose as in ESRD patients (FIG. 3A)",no pressure action
same,systolic arterial blood pressure,normal subjects; 30 minutes of AVP infusion,114 ± 10
same,systolic arterial blood pressure,normal subjects; 60 minutes of AVP infusion,113 ± 10
same,systolic arterial blood pressure,normal subjects; 90 minutes of AVP infusion,114 ± 10
same,systolic arterial blood pressure,normal subjects; 120 minutes of AVP infusion,113 ± 11
same,systolic arterial blood pressure,normal subjects; before infusion (baseline),115 ± 13
same,blood pressure stability and extra fluid removal,[3],the blood pressure was stable and extra fluid removal was possible
same,clearance of the hormone from the blood by hemodialysis,[4]; HD instituted during constant AVP infusion,does not clear the hormone from the blood
same,plasma concentration of AVP at 2 h,"[4]; constant infusion dose 0.15, control period",25.7
same,plasma concentration of AVP at 2 h,"[4]; constant infusion dose 0.15, hemodialysis period",28.9
same,plasma concentration of AVP at 2 h,"[4]; constant infusion dose 0.3, control period",47.4
same,plasma concentration of AVP at 2 h,"[4]; constant infusion dose 0.3, hemodialysis period",51.2
same,plasma concentration of AVP at 2 h,"[4]; constant infusion dose 0.6, control period",100.0
same,plasma concentration of AVP at 2 h,"[4]; constant infusion dose 0.6, hemodialysis period",104.6
same,plasma level of AVP,"[4]; infusion of 0.3 mU/kg/min, hemodialysis patients and control subjects",~40 pg/m
same,level at 1 h,[5]; [7],0.025 ± 0.006 ng/mL
same,level at 2 h,[5]; [7],0.029 ± 0.006 ng/mL
same,level at 0 h,[5]; [7],0.026 ± 0.004 ng/mL
same,level at 1 h,[5]; [8],0.054 ± 0.006 ng/mL
same,level at 2 h,[5]; [8],0.052 ± 0.009 ng/mL
same,level at 0 h,[5]; [8],0.047 ± 0.006 ng/mL
same,change of plasma concentrations of vasopressin by hemodialysis,"[5]; steady state during constant infusion, hemodialysis initiated after >1 hour",not significantly changed
